Reference: patent publication US20240360143A1, “[1,2,4]TRIAZOLO[4,3-A]PYRIMIDIN-7(8H)-ONE AS MITOCHONDRIAL PYRUVATE CARRIER INHIBITORS FOR USE IN THE TREATMENT OF CANCER” (MPC THERAPEUTICS SA, priority 2021, published 2024)

Key:
[1] = test system: B16F10 tumors modified to express HER2; assay: Adoptive cell transfer of HER2-CAR T cells produced with compound, B16 melanoma expressing HER2; type: in vivo, mouse
Experimental: For each retroviral preparation, 8×10^6 Phoenix ECO cells (ATCC, CRL-3214) were plated in a T150 tissue culture flask in RPMI medium supplemented with 10% FCS, 10 mM HEPES and 50 U/ml Penicillin-Streptomycin. On the next day, cells were transfected with 21 μg of the retroviral construct with Turbofect transfection reagent (Thermo Fischer Scientific), according to the manufacturer protocol. The medium was changed daily and collected at 48 h and 72 h post transfection. 48 h and 72 h virus supernatants were pooled and sedimented at 22′000 rcf for 2 h at 4° C. Finally, retrovirus pellets were resuspended in 2 ml of full RPMI medium and divided in 8 aliquots of 250 μl each, which were snap-frozen on dry ice and stored at −80° C.
Spleens from wild type CD45.1.2 mice were smashed on a 70 μm cell strainer. CD8 T cells were purified using the Easy SepTM Mouse CD8+ T Cell Isolation Kit (StemCell) according to the manufacturer protocol. 0.5×10^6 CD8 T cells were plated in 48 well plates in 0.5 ml of complete RPMI 1640 medium supplemented with 10% FCS, antibiotics and 50 IU/ml of recombinant human IL-2, and exposed to either DMSO or 20 μM Compound 45. Mouse T-cells were activated with Activator CD3/CD28 Dynabeads (Gibco) at a ratio of 2 beads per cell. Retroviral infection was conducted at 37° C. for 24 h. Untreated 48 well plates were coated for 24 h with 20 μg/ml of recombinant human fibronectin (Takara Clontech) at 4° C., followed by PBS 2% BSA for 30 min at RT and finally washed with PBS. One aliquot of concentrated retroviruses was plated in each fibronectin-coated 48 well plates and centrifuged for 90 min at 2′000 rcf and 32° C. Then, 0.5×10^6 of 24 h-activated CD8 T cells were added on top of the viruses and spun for 10 min at 400 rcf and 32° C. On day 3, the medium was replaced with 10 IU/ml recombinant human IL-2, 10 ng/ml recombinant human IL-7 and 10 ng/ml recombinant human IL-15, containing either DMSO or 20 μM Compound 45. Cells were then split every second day.
CD45.2 C57BL/6 mice were engrafted subcutaneously with 4×10^5 B16F10 tumors modified to express HER2. Six days later, mice were lymphodepleted with 100 mg/kg cyclophosphamide (Sigma Aldrich, C7397) injected i.p., and homogeneous groups were constituted with regard to tumor volume. T cells (5×10^6) were adoptively transferred i.v. on the next day. Tumor volumes were measured three times a week with a caliper and calculated using the formula: V=π×[d2×D]/6, where d is the minor tumor axis and D is the major tumor axis. Tumors were collected and separated from skin. Single cell suspensions were obtained with the Mouse Tumor Dissociation Kit (Miltenyi, 130-096-730) according to the manufacturer protocol. Spleen and draining lymph node were smashed on a 70 μm cell strainer. Single cell suspensions were stained with antibodies before flow cytometry analysis.
Polyclonal CD8 T cells from wild type mice were activated in the presence of DMSO or 20 μM Compound 45 and then retrovirally transduced with a HER2-CAR construct (FIG. 4A). […] No difference in percentages of memory precursor effector T cells could be detected (FIG. 4F) and TCF1-expressing T cells (FIG. 4G). […] More tumor-infiltrating Compound 45-treated CAR T cells expressed TCF1 (FIG. 5H). […] Finally, fewer Compound 45-treated CAR T cells were expressing the inhibitory molecules PD1 and TIM3, indicating a less exhausted phenotype (FIG. 5K).

[2] = target: T1, mitochondrial pyruvate carrier (MPC) (Homo sapiens, UniProt O95563+Q9Y5U8); assay: Seahorse Xfe24 pyruvate-dependent OCR in HeLa cells; type: cell-based; conditions: pyruvate-dependent OCR in presence of fCCP
T1 sequence (Q9Y5U8 1-109): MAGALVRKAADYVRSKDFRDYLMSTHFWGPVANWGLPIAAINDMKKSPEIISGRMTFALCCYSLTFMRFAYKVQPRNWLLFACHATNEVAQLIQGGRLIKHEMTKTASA
T1 sequence (O95563 1-127): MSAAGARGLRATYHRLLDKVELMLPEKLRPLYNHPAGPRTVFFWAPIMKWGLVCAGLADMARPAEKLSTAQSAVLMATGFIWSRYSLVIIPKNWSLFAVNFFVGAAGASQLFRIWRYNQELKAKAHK
Experimental: The inhibition of mitochondrial pyruvate carrier (MPC) by compounds of the invention have been tested as follows and their inhibitory activity was expressed as IC50s values.
Cells are plated in the customized Seahorse plates. For HeLa cells, seeding is at 4×10^4 cells/well in […] DMEM, 10% FBS, 1% pen/strep/glutamine. 3 wells are left blank (medium alone) for internal calibration. The assay cartridge is hydrated overnight at 37° C. in 1 ml/well XF Calibrant Solution.
Since 50 μl of compound of the invention will be injected into 450 μl washed cells, compounds are made up in assay medium at 10× the final desired concentration
For dose response analyses, compounds are tested at final concentrations 30, 5, 0.83, 0.14, 0.023 μM (1:6 serial dilutions from […])
Positive control: […] (the parent hit compound which gave rise to the actual series)
Negative control: Assay medium alone.
The seahorse reagent plate is prepared as follows and transfered to the Xfe24 analyser for the calibration step:
The medium is almost completely removed from the well without allowing cells to dry Cells are washed twice with 300 μl Assay Medium. 450 μl fresh Assay Medium is added to each well. The plate is transferred to the Xfe24 analyser for measurement of pyruvate-dependent OCR. All values are normalized to the initial basal respiration rate in each well which is measured prior to addition of compounds and designated as 100%. IC50 determination is based on the average of the 3 measurements made in the presence of fCCP, taking 30 μM parent hit compound as maximal inhibition and PBS/Ca/Mg as zero inhibition.

- IC50 [2]: 0.064 µM
SMILES: O=c1cc(Cc2ccccc2)n2c(SCc3c(F)cccc3Cl)nnc2[nH]1 [Compound 45, 5-benzyl-3-[(2-chloro-6-fluorobenzyl)sulfanyl][1,2,4]triazolo[4,3-a]pyrimidin-7 (8H)-one]
- tumor growth ([1]; HER2CAR T cells produced with 20 μM compound, 5×10^6 cells i.v. (FIGS. 4B and 4C)): significantly suppress
- number of CAR T cells in blood ([1]; blood 12 days after ACT (FIG. 4D)): no difference
- percentage of HER2CAR T cells forming short-lived effector T cells ([1]; blood 12 days after ACT (FIG. 4E)): significantly reduced
- percentages of memory precursor effector T cells ([1]; blood 12 days after ACT (FIG. 4F)): No difference
- percentages of TCF1-expressing T cells ([1]; blood 12 days after ACT (FIG. 4G)): No difference
- central memory T cell differentiation ([1]; draining lymph node (FIG. 5B)): Neither in the draining lymph node nor in the spleen could be observed a difference
- HER2CAR T cells expressing TCF1 ([1]; draining lymph node (FIG. 5C)): Neither in the draining lymph node nor in the spleen could be observed a difference
- engraftment of HER2CAR T cells in the spleen ([1]; spleen (FIG. 5D)): increase was significant
- central memory T cell differentiation ([1]; spleen (FIG. 5E)): Neither in the draining lymph node nor in the spleen could be observed a difference
- HER2CAR T cells expressing TCF1 ([1]; spleen (FIG. 5F)): Neither in the draining lymph node nor in the spleen could be observed a difference
- CAR T cells in tumors ([1]; tumor (FIG. 5G)): significantly more
- tumor-infiltrating CAR T cells expressing TCF1 ([1]; tumor (FIG. 5H)): More
- CAR T cells expressing the inhibitory molecules PD1 and TIM3 ([1]; tumor (FIG. 5K)): fewer
- progenitor exhausted T cells (TCF1-positive) ([1]; tumor, co-expression of TCF1 with PD1 (FIG. 5I)): more
- terminally differentiated exhausted T cells (TCF1-negative) ([1]; tumor, co-expression of TCF1 with PD1 (FIG. 5J)): less
- engraftment of HER2CAR T cells in the tumor-draining lymph nodes ([1]; tumor-draining lymph nodes (FIG. 5A)): trend towards an increased engraftment
